# Test results: PubChem BioAssay AID248 (DTP/NCI, 2004)
# Toxic doses and inconclusive results are not listed.
# Test system: L1210 leukemia ip in BDF1 mice, survival T/C
# Experiment: NCI In Vivo Anticancer Drug Screen. Data for tumor model L1210 Leukemia (intraperitoneal) in B6D2F1 (BDF1) mice
# Conditions: endpoint: mean survival time, higher = longer survival
# How it was run: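 Tumor was transplanted into mice, which were then dosed with test compound or vehicle alone. Survival was recorded for each group, and the treated figure was expressed relative to the control figure.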
# [1] = dose: 200.0 mg/kg/injection, schedule: Q01DX001 (ip), vehicle: saline
# [2] = dose: 400.0 mg/kg/injection, schedule: Q01DX001 (ip), vehicle: saline
# [3] = dose: 100.0 mg/kg/injection, schedule: Q04DX002 (ip), vehicle: saline with Tween-80
# [4] = dose: 100.0 mg/kg/injection, schedule: Q01DX001 (ip), vehicle: carboxymethylcellulose (CMC)
# [5] = dose: 200.0 mg/kg/injection, schedule: Q01DX001 (ip), vehicle: carboxymethylcellulose (CMC)
# [6] = dose: 400.0 mg/kg/injection, schedule: Q01DX001 (ip), vehicle: carboxymethylcellulose (CMC)
# [7] = dose: 100.0 mg/kg/injection, schedule: Q01DX001 (ip), vehicle: saline with Tween-80
# [8] = dose: 200.0 mg/kg/injection, schedule: Q01DX001 (ip), vehicle: saline with Tween-80
# [9] = dose: 400.0 mg/kg/injection, schedule: Q01DX001 (ip), vehicle: saline with Tween-80
# [10] = dose: 50.0 mg/kg/injection, schedule: Q01DX009 (ip), vehicle: Klucel (hydroxypropylcellulose) (HPC)
# [11] = dose: 100.0 mg/kg/injection, schedule: Q01DX009 (ip), vehicle: Klucel (hydroxypropylcellulose) (HPC)
# [12] = dose: 100.0 mg/kg/injection, schedule: Q04DX003 (ip), vehicle: Klucel (hydroxypropylcellulose) (HPC)
# [13] = dose: 200.0 mg/kg/injection, schedule: Q01DX009 (ip), vehicle: Klucel (hydroxypropylcellulose) (HPC)
# [14] = dose: 200.0 mg/kg/injection, schedule: Q04DX003 (ip), vehicle: Klucel (hydroxypropylcellulose) (HPC)
# [15] = dose: 400.0 mg/kg/injection, schedule: Q04DX003 (ip), vehicle: Klucel (hydroxypropylcellulose) (HPC)
# [16] = dose: 100.0 mg/kg/injection, schedule: Q01DX009 (ip), vehicle: saline sonified
# [17] = dose: 200.0 mg/kg/injection, schedule: Q01DX009 (ip), vehicle: saline sonified
# [18] = dose: 50.0 mg/kg/injection, schedule: Q01DX001 (ip), vehicle: saline
# [19] = dose: 100.0 mg/kg/injection, schedule: Q01DX001 (ip), vehicle: saline
smiles,measurement,setting,value
FC(F)/C=C\c1ccccc1,T/C,"dose: 75.0 mg/kg/injection, schedule: Q01DX001 (ip), vehicle: other",103 % of control
same,T/C,"dose: 150.0 mg/kg/injection, schedule: Q01DX001 (ip), vehicle: other",105 % of control
same,T/C,"dose: 300.0 mg/kg/injection, schedule: Q01DX001 (ip), vehicle: other",111 % of control
O=C(O)c1c[nH]c2c(Cl)cc(Cl)cc2c1=O,T/C,[1],94 % of control
same,T/C,[2],87 % of control
CCOC(=N)C(O)c1ccccc1 (stereo not drawn),T/C,[3],111 % of control
same,T/C,"dose: 200.0 mg/kg/injection, schedule: Q04DX002 (ip), vehicle: saline with Tween-80",100 % of control
same,T/C,"dose: 400.0 mg/kg/injection, schedule: Q04DX002 (ip), vehicle: saline with Tween-80",100 % of control
O=[N+]([O-])c1ccc(OP(=O)(N2CCCCC2)N2CCCCC2)cc1,T/C,"dose: 25.0 mg/kg/injection, schedule: Q04DX002 (ip), vehicle: saline with Tween-80",93 % of control
same,T/C,"dose: 50.0 mg/kg/injection, schedule: Q04DX002 (ip), vehicle: saline with Tween-80",101 % of control
same,T/C,[3],93 % of control
C#CC1(O)CC[C@H]2[C@@H]3CCC4=CCCC[C@@H]4[C@H]3CC[C@@]21C (stereo partly drawn),T/C,[4],103 % of control
same,T/C,[5],96 % of control
same,T/C,[6],91 % of control
CC1CCCC(c2ccccc2)C1 (stereo not drawn),T/C,[7],97 % of control
same,T/C,[8],102 % of control
same,T/C,[9],101 % of control
O=C1NC(=O)C2(CCc3ccccc3C2)N1 (stereo not drawn),T/C,[10],96 % of control
same,T/C,[11],96 % of control
same,T/C,[12],100 % of control
same,T/C,"dose: 100.0 mg/kg/injection, schedule: Q04DX003 (ip), vehicle: acetone",96 % of control
same,T/C,[13],93 % of control
same,T/C,[14],97 % of control
same,T/C,"dose: 200.0 mg/kg/injection, schedule: Q04DX003 (ip), vehicle: acetone",95 % of control
same,T/C,[15],97 % of control
same,T/C,"dose: 400.0 mg/kg/injection, schedule: Q04DX003 (ip), vehicle: acetone",95 % of control
Cc1cccc2c(Br)cccc12,T/C,[4],97 % of control
same,T/C,[5],95 % of control
same,T/C,[6],93 % of control
CCOc1ccc(NC(=S)NCCc2ccccc2)cc1,T/C,[11],102 % of control
same,T/C,[13],102 % of control
same,T/C,"dose: 400.0 mg/kg/injection, schedule: Q01DX009 (ip), vehicle: Klucel (hydroxypropylcellulose) (HPC)",105 % of control
CNc1cc(Cl)c(Cl)cc1[N+](=O)[O-],T/C,[16],98 % of control
same,T/C,[12],95 % of control
same,T/C,[17],98 % of control
same,T/C,[14],98 % of control
same,T/C,"dose: 400.0 mg/kg/injection, schedule: Q01DX009 (ip), vehicle: saline sonified",98 % of control
same,T/C,[15],104 % of control
NC(=O)C1C2C=CC(O2)C1C(=O)O (stereo not drawn),T/C,"dose: 12.5 mg/kg/injection, schedule: Q04DX002 (ip), vehicle: saline",111 % of control
same,T/C,"dose: 25.0 mg/kg/injection, schedule: Q04DX002 (ip), vehicle: saline",97 % of control
same,T/C,"dose: 50.0 mg/kg/injection, schedule: Q04DX002 (ip), vehicle: saline",103 % of control
CCC(C)OC(=O)Nc1cccc(OC(=O)N(CC)CC)c1 (stereo not drawn),T/C,[7],103 % of control
same,T/C,[8],90 % of control
same,T/C,[9],100 % of control
O=Cc1cscc1-c1cscc1C=O,T/C,"dose: 50.0 mg/kg/injection, schedule: Q01DX009 (ip), vehicle: saline with Tween-80",91 % of control
same,T/C,"dose: 100.0 mg/kg/injection, schedule: Q01DX009 (ip), vehicle: saline with Tween-80",95 % of control
same,T/C,"dose: 200.0 mg/kg/injection, schedule: Q01DX009 (ip), vehicle: saline with Tween-80",98 % of control
O=C(Nc1ccc(Br)cc1)Nc1cc([N+](=O)[O-])ccc1F,T/C,[12],89 % of control
same,T/C,[14],91 % of control
same,T/C,[15],102 % of control
CC(=O)Nc1ccc(OCc2ccccc2)cc1[N+](=O)[O-],T/C,[18],95 % of control
same,T/C,[19],101 % of control
same,T/C,[1],98 % of control
same,T/C,[2],93 % of control
CC(SCc1ccccc1)C(=O)O (stereo not drawn),T/C,[19],97 % of control
same,T/C,[1],94 % of control
same,T/C,[2],92 % of control
COc1ccc(N=Cc2ccc(C=Nc3ccc(OC)cc3)cc2)cc1,T/C,"dose: 25.0 mg/kg/injection, schedule: Q04DX003 (ip), vehicle: Klucel (hydroxypropylcellulose) (HPC)",96 % of control
same,T/C,[10],90 % of control
same,T/C,"dose: 50.0 mg/kg/injection, schedule: Q04DX003 (ip), vehicle: Klucel (hydroxypropylcellulose) (HPC)",98 % of control
same,T/C,[11],97 % of control
same,T/C,[12],96 % of control
same,T/C,[13],88 % of control
O[C@H](c1cc(C(F)(F)F)nc2c(C(F)(F)F)cccc12)[C@@H]1CCCCN1,T/C,"dose: 12.5 mg/kg/injection, schedule: Q01DX009 (ip), vehicle: Klucel (hydroxypropylcellulose) (HPC)",94 % of control
same,T/C,"dose: 12.5 mg/kg/injection, schedule: Q04DX003 (ip), vehicle: saline",98 % of control
same,T/C,"dose: 25.0 mg/kg/injection, schedule: Q01DX009 (ip), vehicle: Klucel (hydroxypropylcellulose) (HPC)",103 % of control
same,T/C,"dose: 25.0 mg/kg/injection, schedule: Q04DX003 (ip), vehicle: saline",98 % of control
same,T/C,"dose: 50.0 mg/kg/injection, schedule: Q04DX003 (ip), vehicle: saline",97 % of control
COc1cc2c(c(OC)c1OC)-c1ccc(SC)c(=O)cc1[C@@H](NC1OC(CO)C(O)C(O)C1O)CC2 (stereo partly drawn),T/C,"dose: 25.0 mg/kg/injection, schedule: Q01DX005 (ip), vehicle: saline",102 % of control
same,T/C,"dose: 50.0 mg/kg/injection, schedule: Q01DX009 (ip), vehicle: saline",150 % of control
same,T/C,"dose: 75.0 mg/kg/injection, schedule: Q01DX009 (ip), vehicle: saline",95 % of control
same,T/C,"dose: 150.0 mg/kg/injection, schedule: Q01DX005 (ip), vehicle: saline",120 % of control
CCN(CCO)c1ccc(N=O)cc1,T/C,"dose: 5.0 mg/kg/injection, schedule: Q01DX001 (ip), vehicle: saline",95 % of control
same,T/C,"dose: 10.0 mg/kg/injection, schedule: Q01DX001 (ip), vehicle: saline",101 % of control
same,T/C,[18],90 % of control
CC(=O)COc1cccc(Cl)c1,T/C,[12],104 % of control
same,T/C,[14],98 % of control
same,T/C,[15],97 % of control
COc1ccc(/C=N/NC(=O)CNC(=O)NCc2ccccc2)cc1,T/C,[11],90 % of control
same,T/C,[13],93 % of control
CC(CCl)(CCl)CCl,T/C,"dose: 50.0 mg/kg/injection, schedule: Q01DX009 (ip), vehicle: saline sonified",96 % of control
same,T/C,"dose: 100.0 mg/kg/injection, schedule: Q01DX001 (ip), vehicle: saline sonified",99 % of control
same,T/C,[16],106 % of control
same,T/C,"dose: 200.0 mg/kg/injection, schedule: Q01DX001 (ip), vehicle: saline sonified",96 % of control
same,T/C,[17],94 % of control
CNC(=S)SC,T/C,[18],90 % of control
same,T/C,[19],98 % of control
same,T/C,[1],96 % of control
